Measured values taken from patent US20250073255A1, “USE OF FA-TYPE LIPID COMPOUNDS IN PREPARATION OF NUCLEIC ACID DELIVERY REAGENT AND RELATED PRODUCT” (BEIJING BAISHIKANG PHARMACEUTICAL TECHNOLOGY (BSJPHARMA) …, priority 2021, published 2025).

System: C57BL/6 male mice
Test: In vivo delivery study of lipid nucleic acid mixture (oral gavage, RT-qPCR of PGY-sRNA-26 in tissues)
Parameters: species or system mouse
Conditions: for oral delivery of single-stranded sRNA nucleic acids into mouse heart tissue: vs free uptake group; for oral delivery of single-stranded sRNA nucleic acids into mouse intestinal tissue: intestine; for overall delivery efficacy: delivering nucleic acids into each tissue and blood tested: 100 μg lipid:10 nmol PGY-sRNA-26, all tissues and blood tested
Procedure, shortened: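 Stem-loop RT and SYBR qPCR, normalized to U6, measured PGY-sRNA-26 in blood and organs 12 h after gavage. Dosing was 10 nmol sRNA with 100 μg lipid, pre-mixed and heated 15 min at 90 °C, in 12-h-fasted mice, against saline and free-sRNA groups.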

[1] = 100 μg lipid:10 nmol PGY-sRNA-26, sampled after 12 hours

SMILES: CC(=O)CCC=C(C)CCC=C(C)C [Lipid 502, 6,10-dimethylundeca-5,9-dien-2-one]
- oral delivery of single-stranded sRNA nucleic acids into mouse blood [1]: can effectively orally deliver
- oral delivery of single-stranded sRNA nucleic acids into mouse brain tissue [1]: can effectively orally deliver
- oral delivery of single-stranded sRNA nucleic acids into mouse heart tissue [1]: can effectively orally deliver
- oral delivery of single-stranded sRNA nucleic acids into mouse intestinal tissue [1]: can effectively orally deliver
- oral delivery of single-stranded sRNA nucleic acids into mouse kidney tissue [1]: can effectively orally deliver
- oral delivery of single-stranded sRNA nucleic acids into mouse spleen tissue [1]: can effectively orally deliver
- oral delivery of single-stranded sRNA nucleic acids into mouse stomach tissue [1]: can effectively orally deliver

SMILES: CCCCCCCCCOC(C)=O [Lipid 617, nonyl acetate]
- oral delivery of single-stranded sRNA nucleic acids into mouse blood [1]: can effectively orally deliver
- oral delivery of single-stranded sRNA nucleic acids into mouse brain tissue [1]: can effectively orally deliver
- oral delivery of single-stranded sRNA nucleic acids into mouse femur [1]: can effectively orally deliver
- oral delivery of single-stranded sRNA nucleic acids into mouse intestinal tissue [1]: can effectively orally deliver
- oral delivery of single-stranded sRNA nucleic acids into mouse kidney tissue [1]: can effectively orally deliver
- oral delivery of single-stranded sRNA nucleic acids into mouse liver tissue [1]: can effectively orally deliver
- oral delivery of single-stranded sRNA nucleic acids into mouse lung tissue [1]: can effectively orally deliver
- oral delivery of single-stranded sRNA nucleic acids into mouse spleen tissue [1]: can effectively orally deliver
- oral delivery of single-stranded sRNA nucleic acids into mouse stomach tissue [1]: can effectively orally deliver

SMILES: CCCCC/C=C\C/C=C\C/C=C\C/C=C\CCCC(=O)NCCN(CC)CC [Lipid 810, (5Z,8Z,11Z,14Z)-N-[2-(diethylamino)ethyl]icosa-5,8,11,14-tetraenamide]
- overall delivery efficacy: delivering nucleic acids into each tissue and blood tested: best delivery efficacy
- oral delivery of single-stranded sRNA nucleic acids into mouse blood [1]: can effectively orally deliver
- oral delivery of single-stranded sRNA nucleic acids into mouse brain tissue [1]: can effectively orally deliver
- oral delivery of single-stranded sRNA nucleic acids into mouse femur [1]: can effectively orally deliver
- oral delivery of single-stranded sRNA nucleic acids into mouse heart tissue [1]: can effectively orally deliver
- oral delivery of single-stranded sRNA nucleic acids into mouse intestinal tissue [1]: can effectively orally deliver
- oral delivery of single-stranded sRNA nucleic acids into mouse kidney tissue [1]: can effectively orally deliver
- oral delivery of single-stranded sRNA nucleic acids into mouse liver tissue [1]: can effectively orally deliver
- oral delivery of single-stranded sRNA nucleic acids into mouse lung tissue [1]: can effectively orally deliver
- oral delivery of single-stranded sRNA nucleic acids into mouse pancreatic tissue (100 μg lipid:10 nmol PGY-sRNA-26, sampled after 12 hours, pancreas): can effectively orally deliver
- oral delivery of single-stranded sRNA nucleic acids into mouse spleen tissue [1]: can effectively orally deliver
- oral delivery of single-stranded sRNA nucleic acids into mouse stomach tissue [1]: can effectively orally deliver

SMILES: CCCCCCCCCCCCCC(C)=O [Lipid 593, pentadecan-2-one]
- overall delivery efficacy: delivering nucleic acids into each tissue and blood tested: best delivery efficacy
- oral delivery of single-stranded sRNA nucleic acids into mouse blood [1]: can effectively orally deliver
- oral delivery of single-stranded sRNA nucleic acids into mouse brain tissue [1]: can effectively orally deliver
- oral delivery of single-stranded sRNA nucleic acids into mouse femur [1]: can effectively orally deliver
- oral delivery of single-stranded sRNA nucleic acids into mouse heart tissue [1]: can effectively orally deliver
- oral delivery of single-stranded sRNA nucleic acids into mouse intestinal tissue [1]: can effectively orally deliver
- oral delivery of single-stranded sRNA nucleic acids into mouse kidney tissue [1]: can effectively orally deliver
- oral delivery of single-stranded sRNA nucleic acids into mouse liver tissue [1]: can effectively orally deliver
- oral delivery of single-stranded sRNA nucleic acids into mouse lung tissue [1]: can effectively orally deliver
- oral delivery of single-stranded sRNA nucleic acids into mouse spleen tissue [1]: can effectively orally deliver
- oral delivery of single-stranded sRNA nucleic acids into mouse stomach tissue [1]: can effectively orally deliver

SMILES: O=C(O)CCCCCCCCCCCCCC(=O)O [Lipid 572, pentadecanedioic acid]
- oral delivery of single-stranded sRNA nucleic acids into mouse blood [1]: can effectively orally deliver
- oral delivery of single-stranded sRNA nucleic acids into mouse brain tissue [1]: can effectively orally deliver
- oral delivery of single-stranded sRNA nucleic acids into mouse femur [1]: can effectively orally deliver
- oral delivery of single-stranded sRNA nucleic acids into mouse heart tissue [1]: can effectively orally deliver
- oral delivery of single-stranded sRNA nucleic acids into mouse intestinal tissue [1]: can effectively orally deliver
- oral delivery of single-stranded sRNA nucleic acids into mouse kidney tissue [1]: can effectively orally deliver
- oral delivery of single-stranded sRNA nucleic acids into mouse liver tissue [1]: can effectively orally deliver
- oral delivery of single-stranded sRNA nucleic acids into mouse spleen tissue [1]: can effectively orally deliver
- oral delivery of single-stranded sRNA nucleic acids into mouse stomach tissue [1]: can effectively orally deliver

SMILES: CC/C=C\CC1C(=O)CCC1CC(=O)O (centres unmarked) [Lipid 527]
- overall delivery efficacy: delivering nucleic acids into each tissue and blood tested: best delivery efficacy
- oral delivery of single-stranded sRNA nucleic acids into mouse blood [1]: can effectively orally deliver
- oral delivery of single-stranded sRNA nucleic acids into mouse brain tissue [1]: can effectively orally deliver
- oral delivery of single-stranded sRNA nucleic acids into mouse femur [1]: can effectively orally deliver
- oral delivery of single-stranded sRNA nucleic acids into mouse heart tissue [1]: can effectively orally deliver
- oral delivery of single-stranded sRNA nucleic acids into mouse intestinal tissue [1]: can effectively orally deliver
- oral delivery of single-stranded sRNA nucleic acids into mouse kidney tissue [1]: can effectively orally deliver
- oral delivery of single-stranded sRNA nucleic acids into mouse liver tissue [1]: can effectively orally deliver
- oral delivery of single-stranded sRNA nucleic acids into mouse lung tissue [1]: can effectively orally deliver
- oral delivery of single-stranded sRNA nucleic acids into mouse spleen tissue [1]: can effectively orally deliver
- oral delivery of single-stranded sRNA nucleic acids into mouse stomach tissue [1]: can effectively orally deliver

SMILES: CCCCCCCCCCCCCC=O [Lipid 594]
- overall delivery efficacy: delivering nucleic acids into each tissue and blood tested: best delivery efficacy
- oral delivery of single-stranded sRNA nucleic acids into mouse blood [1]: can effectively orally deliver
- oral delivery of single-stranded sRNA nucleic acids into mouse brain tissue [1]: can effectively orally deliver
- oral delivery of single-stranded sRNA nucleic acids into mouse femur [1]: can effectively orally deliver
- oral delivery of single-stranded sRNA nucleic acids into mouse heart tissue [1]: can effectively orally deliver
- oral delivery of single-stranded sRNA nucleic acids into mouse intestinal tissue [1]: can effectively orally deliver
- oral delivery of single-stranded sRNA nucleic acids into mouse kidney tissue [1]: can effectively orally deliver
- oral delivery of single-stranded sRNA nucleic acids into mouse liver tissue [1]: can effectively orally deliver
- oral delivery of single-stranded sRNA nucleic acids into mouse lung tissue [1]: can effectively orally deliver
- oral delivery of single-stranded sRNA nucleic acids into mouse spleen tissue [1]: can effectively orally deliver
- oral delivery of single-stranded sRNA nucleic acids into mouse stomach tissue [1]: can effectively orally deliver

SMILES: CC/C=C/CC1C(=O)CCC1CC(=O)OC (centres unmarked) [Lipid 501]
- overall delivery efficacy: delivering nucleic acids into each tissue and blood tested: best delivery efficacy
- oral delivery of single-stranded sRNA nucleic acids into mouse blood [1]: can effectively orally deliver
- oral delivery of single-stranded sRNA nucleic acids into mouse brain tissue [1]: can effectively orally deliver
- oral delivery of single-stranded sRNA nucleic acids into mouse heart tissue [1]: can effectively orally deliver
- oral delivery of single-stranded sRNA nucleic acids into mouse intestinal tissue [1]: can effectively orally deliver
- oral delivery of single-stranded sRNA nucleic acids into mouse kidney tissue [1]: can effectively orally deliver
- oral delivery of single-stranded sRNA nucleic acids into mouse liver tissue [1]: can effectively orally deliver
- oral delivery of single-stranded sRNA nucleic acids into mouse lung tissue [1]: can effectively orally deliver
- oral delivery of single-stranded sRNA nucleic acids into mouse spleen tissue [1]: can effectively orally deliver
- oral delivery of single-stranded sRNA nucleic acids into mouse stomach tissue [1]: can effectively orally deliver
